{"source": "patent US20120142730A1", "about": "(priority 2010, published 2012)", "tested_on": "subjects with relapsing remitting multiple sclerosis (RRMS)", "assay": "ALLEGRO phase III trial: patient-reported fatigue (MFIS), SF-36 and EQ5D", "assay_type": "in vivo, human", "method": "Eligible subjects were equally randomized 1:1 into one of the following treatment arms: • 1. […] 21, 2007 (see, page 10, line 5 to page 11, line 3). • 2. Matching placebo for laquinimod arm: one capsule is administered once daily. The following assessments were performed at specified time points: • 1. Vital signs were measured at each study visit. • 2. A physical examination is performed at months −1 (screening), (baseline) 1, 3, 6, 12, 18 and 24 (termination/early discontinuation core study). In case of the 6 months extended study, additional examination was performed at month 30 (termination/early discontinuation of extended study). • 3. The following safety clinical laboratory tests were performed: • a. Complete blood count (CBC) with differential—at all scheduled visits. A reticulocyte count was added to the CBC at months 0 (baseline) and 24/30 (termination/early discontinuation). • b. Serum chemistry (including electrolytes, liver enzymes, direct and total bilirubin and pancreatic amylase and CPK), and urinalysis—at all scheduled visits. • c. A rapid urine β-hCG test was performed in women of child-bearing potential at baseline (month 0) and at each scheduled study visit thereafter (at site). • d. β-hCG in women of child-bearing potential was performed at all scheduled visits. • e. Starting after visit Month 3 a rapid urine β-hCG test was performed in women of child-bearing potential every 28 (±2) days. The subject was contacted by telephone within 72 hours after the test was scheduled to be performed and asked specific questions regarding the test. In case of suspected pregnancy (positive urine β-hCG test result), the caller made sure that the study drug has been discontinued and the subject was instructed to arrive at the site as soon as possible with all study drugs. • 4. Markers of inflammation (serum conventional C-reactive protein and fibrinogen)—at screening, baseline and all scheduled visits thereafter. • 5. During the first 3 months periodical phone calls were placed by the site personnel every two weeks. […] ECG was performed at months −1 (screening; additional recording, up to 30 minutes apart is performed if QTc is […] 450 msec), (baseline; three recordings, 15 minutes apart), 1, 2, 3, 6, 12, 18 and 24 (termination/early discontinuation). In case of the 6 months extended study, ECG is performed at month 30 (termination/early discontinuation of the extended study). • 7. Chest X-ray is performed at months −1 (screening), (if not performed within 7 months prior to the screening visit). • 8. Adverse Events (AEs) are monitored throughout the study. • 9. Concomitant medications are monitored throughout the study. • 10. Neurological evaluations, including Expanded Disability Status Scale (EDSS), 25 foot walk test/Ambulation Index (AI), Functional systems (FS) are performed at months −1 (screening), (baseline) and every 3 months during the study and the extended study period. • 11. MS functional Composite (MSFC) was assessed at months −1 (screening) (three practices for training purposes only), at month 0 (baseline), 6, 12, 18 and 24 (termination/early discontinuation). In case of the 6 months extended study, the last MSFC was performed at months 30 (termination/early discontinuation of the extended study). • 12. Subject-reported fatigue was assessed by the Modified Fatigue Impact Scale (MFIS) at months 0, 6, 12, 18, and 24 (termination/early discontinuation). In case of the 6 months extended study, additional MFIS was performed at month 30 (termination/early discontinuation of the extended study). • 13. The general health status was assessed by the EuroQoL (EQ5D) questionnaire at month 0 (baseline) and month 24 (termination/early discontinuation of the study). In case of the 6 months extended study, the last EuroQoL (EQ5D) was performed at month 30 (termination/early discontinuation of the extended study) instead of month 24. • 14. […]", "key": {"[1]": {"conditions": "0.6 mg daily oral, listed as laquinimod"}}, "data": [{"smiles": "CCN(C(=O)c1c(O)c2c(Cl)cccc2n(C)c1=O)c1ccccc1", "note": "[Laquinimod, laquinimod]", "values": [{"measurement": "EQ-5D dimensions, health status at Month 24, words", "setting": "0.6 mg daily oral", "value": "0.6 mg maintained their health status at Month 24 while those treated with placebo reported a"}, {"measurement": "MFIS (Modified Fatigue Impact Scale) adjusted mean score at 24 months", "setting": "0.6 mg daily oral", "value": 31.9}, {"measurement": "SF36 Mental component summary, treatment effect", "setting": "0.6 mg daily oral vs placebo", "value": 1.848}, {"measurement": "MFIS treatment effect", "setting": "0.6 mg daily oral vs placebo, month 24, p=0.004", "value": "−2.53"}, {"measurement": "EQ5D, effect", "setting": "0.6 mg daily oral vs placebo, p 0.0267", "value": "−2.366"}, {"measurement": "SF36 Physical component summary, effect", "setting": "0.6 mg daily oral vs placebo, p 0.1354", "value": 0.65}, {"measurement": "SF36 Mental component summary, treatment effect", "setting": "0.6 mg daily oral vs placebo, listed as laquinimod", "value": 1.68}, {"measurement": "EQ5D General Health Status by the Euroqol Questionnaire", "setting": "0.6 mg daily oral, month 24", "value": 71.0}, {"measurement": "SF36 - SFMHD Mental component summary", "setting": "0.6 mg daily oral, month 24", "value": "−0.47"}, {"measurement": "SF36 - SFPHD Physical component summary", "setting": "0.6 mg daily oral, month 24", "value": "−0.519"}, {"measurement": "MFIS (Modified Fatigue Impact Scale) adjusted mean score at 24 months", "setting": "[1]", "value": "31.9 (0.71)"}, {"measurement": "SF-36 PCS score over 24 months, words", "setting": "[1]", "value": "The PCS score at Month 24 for those treated with laquinimod 0.6 mg remained stable while the"}, {"measurement": "Functional disability due to fatigue (MFIS), words", "setting": "0.6 mg vs placebo at Month 24", "value": "average, associated with less functional disability due to fatigue than placebo at Month 24"}, {"measurement": "Change in adjusted mean MFIS psychosocial subscale score from baseline", "setting": "at 12 months, p=0.02", "value": "significant improvement"}, {"measurement": "Change in adjusted mean MFIS physical subscale score from baseline", "setting": "at 24 months, p=0.02", "value": "significant improvement"}, {"measurement": "Change in adjusted mean MFIS cognitive subscale score from baseline", "setting": "at 24 months, p=0.05", "value": "significant improvement"}, {"measurement": "SF-36 PCS subscale role physical", "setting": "over 24 months vs placebo, p=0.010", "value": "showed improvement"}, {"measurement": "SF-36 PCS subscale physical functioning", "setting": "over 24 months vs placebo, p=0.016", "value": "showed improvement"}, {"measurement": "SF-36 PCS difference from placebo, words", "setting": "over 24 months, p=0.13", "value": "did not reach statistical significance"}, {"measurement": "EQ-5D Anxiety or Depression, effect", "setting": "vs placebo, Month 24, p 0.0113", "value": 1.425}, {"measurement": "EQ-5D Mobility, effect", "setting": "vs placebo, Month 24, p 0.0181", "value": 1.497}, {"measurement": "EQ-5D Self care, effect", "setting": "vs placebo, Month 24, p 0.0337", "value": 2.251}, {"measurement": "EQ-5D Usual activities, effect", "setting": "vs placebo, Month 24, p 0.4051", "value": 1.129}, {"measurement": "EQ-5D Pain discomfort, effect", "setting": "vs placebo, Month 24, p 0.8024", "value": 1.036}]}]}
